Source: paper PMC5218480 (PLoS ONE, 2017)

Tested on: MV-4-11 cells
Assay: Gene expression microarray analysis (Affymetrix PrimeView) and GSEA
Type: cell-based, human
Parameters: RFU PODN (11730768_x_at) / Fold change /veh PODN (11730768_x_at) / RFU LINC00158 (11744669_a_at) / Fold change /veh LINC00158 (11744669_a_at) / RFU DUSP10 (11751237_a_at) / Fold change /veh DUSP10 (11751237_a_at) / RFU ID3 (11757404_x_at) / Fold change /veh ID3 (11757404_x_at) / RFU PLEKHG5 (11737974_s_at) / Fold change /veh PLEKHG5 (11737974_s_at) / RFU LRRC4B (11730491_at) / Fold change /veh LRRC4B (11730491_at) / RFU GIMAP4 (11747438_a_at) / Fold change /veh GIMAP4 (11747438_a_at) / RFU KRT8 (11758183_x_at) / Fold change /veh KRT8 (11758183_x_at) / RFU CNN1 (11734310_a_at) / Fold change /veh CNN1 (11734310_a_at) / RFU VPS37D (11726825_at) / Fold change /veh VPS37D (11726825_at) / RFU C10orf10 (11716522_x_at) / Fold change /veh C10orf10 (11716522_x_at) / RFU KIR2DL2 /// KIR2DL4 /// KIR2DL5A /// KIR2DL5B /// KIR2DS1 /// KIR2DS2 /// KIR2DS3 /// KIR2DS4 /// KIR3DL3 /// KIR3DL3 /// KIR3DS1 (11738374_at) / Fold change /veh KIR2DL2 /// KIR2DL4 /// KIR2DL5A /// KIR2DL5B /// KIR2DS1 /// KIR2DS2 /// KIR2DS3 /// KIR2DS4 /// KIR3DL3 /// KIR3DL3 /// KIR3DS1 (11738374_at) / RFU C1QL1 (11718748_at) / Fold change /veh C1QL1 (11718748_at) / RFU TMPRSS4 (11747572_a_at) / Fold change /veh TMPRSS4 (11747572_a_at) / RFU HAMP (11756126_x_at) / Fold change /veh HAMP (11756126_x_at) / RFU RNFT2 (11725882_a_at) / Fold change /veh RNFT2 (11725882_a_at) / RFU NR4A2 (11747474_a_at) / Fold change /veh NR4A2 (11747474_a_at) / RFU ABCC12 (11746883_a_at) / Fold change /veh ABCC12 (11746883_a_at) / RFU TMEM136 (11760407_x_at) / Fold change /veh TMEM136 (11760407_x_at) / RFU CLDN22 /// WWC2 (11732394_at) / Fold change /veh CLDN22 /// WWC2 (11732394_at) / RFU HLA-DPB1 (11760878_x_at) / Fold change /veh HLA-DPB1 (11760878_x_at) / RFU SPINT1 (11716480_a_at) / Fold change /veh SPINT1 (11716480_a_at) / RFU GAP43 (11754022_s_at) / Fold change /veh GAP43 (11754022_s_at) / RFU A4GNT (11735810_at) / Fold change /veh A4GNT (11735810_at) / RFU PRB3 (11715151_x_at) / Fold change /veh PRB3 (11715151_x_at) / RFU TUBB4B (11761932_at) / Fold change /veh TUBB4B (11761932_at) / RFU CAPN14 (11732068_a_at) / Fold change /veh CAPN14 (11732068_a_at) / RFU TMCC2 (11721928_a_at) / Fold change /veh TMCC2 (11721928_a_at) / RFU IRGQ (11745062_a_at) / Fold change /veh IRGQ (11745062_a_at) / RFU FAM174B (11720279_a_at) / Fold change /veh FAM174B (11720279_a_at) / RFU TMPRSS4 (11748680_a_at) / Fold change /veh TMPRSS4 (11748680_a_at) / RFU FAM212B (11763350_a_at) / Fold change /veh FAM212B (11763350_a_at) / RFU PLEKHG5 (11743358_a_at) / Fold change /veh PLEKHG5 (11743358_a_at) / RFU ZSCAN30 (11745921_a_at) / Fold change /veh ZSCAN30 (11745921_a_at) / RFU CMKLR1 (11741424_a_at) / Fold change /veh CMKLR1 (11741424_a_at) / RFU LOC101060620 /// MAPK8IP1 (11723275_at) / Fold change /veh LOC101060620 /// MAPK8IP1 (11723275_at) / RFU SPTSSB (11747773_x_at) / Fold change /veh SPTSSB (11747773_x_at) / RFU PRSS12 (11739890_at) / Fold change /veh PRSS12 (11739890_at) / RFU BIN1 (11741810_x_at) / Fold change /veh BIN1 (11741810_x_at) / RFU WNT11 (11732464_a_at) / Fold change /veh WNT11 (11732464_a_at) / RFU C10orf10 (11716521_a_at) / Fold change /veh C10orf10 (11716521_a_at) / RFU C5orf56 (11738089_at) / Fold change /veh C5orf56 (11738089_at) / RFU CYB561 (11721691_x_at) / Fold change /veh CYB561 (11721691_x_at) / RFU ANKRD19P (11752326_a_at) / Fold change /veh ANKRD19P (11752326_a_at) / RFU OR2T12 /// OR2T33 /// OR2T8 (11738714_s_at) / Fold change /veh OR2T12 /// OR2T33 /// OR2T8 (11738714_s_at) / RFU VCAN (11748164_a_at) / Fold change /veh VCAN (11748164_a_at) / RFU JSRP1 (11732532_at) / Fold change /veh JSRP1 (11732532_at) / RFU KRTAP10-11 (11738290_x_at) / Fold change /veh KRTAP10-11 (11738290_x_at) / RFU MYO3A (11730013_a_at) / Fold change /veh MYO3A (11730013_a_at) / RFU EBF3 (11725865_a_at) / Fold change /veh EBF3 (11725865_a_at) / RFU CAMK2N1 (11719241_x_at) / Fold change /veh CAMK2N1 (11719241_x_at) / RFU C5orf56 (11738088_a_at) / Fold change /veh C5orf56 (11738088_a_at) / RFU OLFML3 (11715873_a_at) / Fold change /veh OLFML3 (11715873_a_at) / RFU LOC100653217 /// NTM (11731650_a_at) / Fold change /veh LOC100653217 /// NTM (11731650_a_at) / RFU MAPK11 (11762145_a_at) / Fold change /veh MAPK11 (11762145_a_at) / RFU FIZ1 (11724087_x_at) / Fold change /veh FIZ1 (11724087_x_at) / RFU OASL (11726364_x_at) / Fold change /veh OASL (11726364_x_at) / RFU SOX15 (11748057_x_at) / Fold change /veh SOX15 (11748057_x_at) / RFU CD79A (11719716_a_at) / Fold change /veh CD79A (11719716_a_at) / RFU HIST1H1D (11736915_at) / Fold change /veh HIST1H1D (11736915_at) / RFU CASKIN2 (11723855_a_at) / Fold change /veh CASKIN2 (11723855_a_at) / RFU LOC730098 (11760151_x_at) / Fold change /veh LOC730098 (11760151_x_at) / RFU OR4N2 (11742367_at) / Fold change /veh OR4N2 (11742367_at) / RFU PRRT2 (11749266_a_at) / Fold change /veh PRRT2 (11749266_a_at) / RFU SNX32 (11753110_a_at) / Fold change /veh SNX32 (11753110_a_at) / RFU CDHR5 (11726645_a_at) / Fold change /veh CDHR5 (11726645_a_at) / RFU RCAN1 (11760418_a_at) / Fold change /veh RCAN1 (11760418_a_at) / RFU FAM167A (11723789_a_at) / Fold change /veh FAM167A (11723789_a_at) / RFU FAM26E (11764081_at) / Fold change /veh FAM26E (11764081_at) / RFU ISYNA1 (11749810_s_at) / Fold change /veh ISYNA1 (11749810_s_at) / RFU ACY1 (11761880_at) / Fold change /veh ACY1 (11761880_at) / RFU 11764098_at / Fold change /veh 11764098_at / RFU SAMD14 (11745864_x_at) / Fold change /veh SAMD14 (11745864_x_at) / RFU NPB (11741838_a_at) / Fold change /veh NPB (11741838_a_at) / RFU TMPRSS6 (11731388_a_at) / Fold change /veh TMPRSS6 (11731388_a_at) / RFU KRTAP10-2 (11738614_at) / Fold change /veh KRTAP10-2 (11738614_at) / RFU ARHGAP8 /// PRR5-ARHGAP8 (11727945_x_at) / Fold change /veh ARHGAP8 /// PRR5-ARHGAP8 (11727945_x_at) / RFU KRTAP5-7 /// NADSYN1 (11734609_at) / Fold change /veh KRTAP5-7 /// NADSYN1 (11734609_at) / RFU RASL12 (11751679_a_at) / Fold change /veh RASL12 (11751679_a_at) / RFU CDKN2B (11736163_a_at) / Fold change /veh CDKN2B (11736163_a_at) / RFU PRF1 (11729649_at) / Fold change /veh PRF1 (11729649_at) / RFU, ZNF638 /// ZNF638-IT1 / Fold change vs veh, ZNF638 /// ZNF638-IT1 / RFU, PANK3 / Fold change vs veh, PANK3 / RFU, SH3YL1 / Fold change vs veh, SH3YL1 / RFU, ZEB2 / Fold change vs veh, ZEB2 / RFU, NRIP1 / Fold change vs veh, NRIP1 / RFU, PTTG1IP / Fold change vs veh, PTTG1IP / RFU, CAPN2 / Fold change vs veh, CAPN2 / RFU, MED14 / Fold change vs veh, MED14 / RFU, SNORA58 / Fold change vs veh, SNORA58 / RFU, C1orf63 / Fold change vs veh, C1orf63 / RFU, LRRFIP1 / Fold change vs veh, LRRFIP1 / RFU, NDUFAF7 / Fold change vs veh, NDUFAF7 / RFU, SLC12A2 / Fold change vs veh, SLC12A2 / RFU, IBTK / Fold change vs veh, IBTK / RFU, ESF1 / Fold change vs veh, ESF1 / Fold change vs veh, TMEM50B / RFU, TAOK1 / Fold change vs veh, TAOK1 / RFU, ACBD3 / Fold change vs veh, ACBD3 / RFU, TMA16 / Fold change vs veh, TMA16 / RFU, RWDD3 / Fold change vs veh, RWDD3 / RFU, BCAT1 / Fold change vs veh, BCAT1 / RFU, EDEM3 / Fold change vs veh, EDEM3 / RFU, TMEM33 / Fold change vs veh, TMEM33 / RFU, WDR75 / Fold change vs veh, WDR75 / RFU, AHCTF1 / Fold change vs veh, AHCTF1 / RFU, TFRC / Fold change vs veh, TFRC / RFU, ZDHHC17 / Fold change vs veh, ZDHHC17 / RFU, NOM1 / Fold change vs veh, NOM1 / RFU, ARL8B / Fold change vs veh, ARL8B / RFU, ZBTB11 / Fold change vs veh, ZBTB11 / RFU, TAMM41 / Fold change vs veh, TAMM41 / RFU, KIAA1704 /// LOC100996395 / Fold change vs veh, KIAA1704 /// LOC100996395 / RFU, ING1 / Fold change vs veh, ING1 / RFU, TRMT61B / Fold change vs veh, TRMT61B / RFU, FUBP3 / Fold change vs veh, FUBP3 / RFU, TP53 / Fold change vs veh, TP53 / RFU, TNKS2 / Fold change vs veh, TNKS2 / RFU, ZFP14 / Fold change vs veh, ZFP14 / RFU, ACTR2 / Fold change vs veh, ACTR2 / RFU, PPP3R1 / Fold change vs veh, PPP3R1 / RFU, PIK3R1 / Fold change vs veh, PIK3R1 / RFU, HNRNPA1 / Fold change vs veh, HNRNPA1 / RFU, RNF170 / Fold change vs veh, RNF170 / RFU, ZNF28 / Fold change vs veh, ZNF28 / RFU, RNGTT / Fold change vs veh, RNGTT / RFU, OGT / Fold change vs veh, OGT / RFU, BRD1 / Fold change vs veh, BRD1 / RFU, MARS / Fold change vs veh, MARS / RFU, ZNF655 / Fold change vs veh, ZNF655 / RFU, FAHD1 / Fold change vs veh, FAHD1 / RFU, BDP1 / Fold change vs veh, BDP1 / RFU, LRRCC1 / Fold change vs veh, LRRCC1 / RFU, ARID1A / Fold change vs veh, ARID1A / RFU, ZNF146 / Fold change vs veh, ZNF146 / RFU, ZNF330 / Fold change vs veh, ZNF330 / RFU, GPN3 / Fold change vs veh, GPN3 / RFU, C9orf123 / Fold change vs veh, C9orf123 / RFU, N4BP2L2 / Fold change vs veh, N4BP2L2 / RFU, ARFIP1 / Fold change vs veh, ARFIP1 / RFU, FAM179B / Fold change vs veh, FAM179B / RFU, BCL10 / Fold change vs veh, BCL10 / RFU, UHRF1BP1L / Fold change vs veh, UHRF1BP1L / RFU, BET1 / Fold change vs veh, BET1 / RFU, CNOT2 / Fold change vs veh, CNOT2 / RFU, ZNF268 / Fold change vs veh, ZNF268 / Fold change vs veh, ZNF507 / RFU, DGCR2 / Fold change vs veh, DGCR2 / RFU, WDSUB1 / Fold change vs veh, WDSUB1 / Fold change vs veh, HSP90B1 /// MIR3652 / RFU, ADSS / Fold change vs veh, ADSS / RFU, GK / Fold change vs veh, GK / RFU, ZNF148 / Fold change vs veh, ZNF148 / RFU, TAF9 / Fold change vs veh, TAF9 / RFU, SLC1A5 / Fold change vs veh, SLC1A5 / RFU, SLMO2 / Fold change vs veh, SLMO2 / RFU, ABCC4 / Fold change vs veh, ABCC4 / RFU, LOC101060439 /// RAP1B / Fold change vs veh, LOC101060439 /// RAP1B / RFU, RFX7 / Fold change vs veh, RFX7 / RFU, GTPBP10 / Fold change vs veh, GTPBP10 / RFU, CNEP1R1 / Fold change vs veh, CNEP1R1 / RFU, BIVM-ERCC5 /// ERCC5 / Fold change vs veh, BIVM-ERCC5 /// ERCC5 / RFU, ILF3 / Fold change vs veh, ILF3 / RFU 11762660_at / Fold change /veh 11762660_at / RFU VCAN (11757783_s_at) / Fold change /veh VCAN (11757783_s_at) / RFU DDX43 (11728927_at) / Fold change /veh DDX43 (11728927_at) / RFU KRT8 (11758188_x_at) / Fold change /veh KRT8 (11758188_x_at) / RFU NKD1 (11759106_at) / Fold change /veh NKD1 (11759106_at) / RFU SRD5A1 (11742802_a_at) / Fold change /veh SRD5A1 (11742802_a_at) / RFU TPSAB1 /// TPSB2 (11721975_s_at) / Fold change /veh TPSAB1 /// TPSB2 (11721975_s_at) / RFU GSTM3 (11746129_a_at) / Fold change /veh GSTM3 (11746129_a_at) / RFU IL23R (11737362_x_at) / Fold change /veh IL23R (11737362_x_at) / RFU TMEM51 (11727254_a_at) / Fold change /veh TMEM51 (11727254_a_at) / RFU PIWIL2 (11732686_x_at) / Fold change /veh PIWIL2 (11732686_x_at) / RFU ORM1 (11744905_x_at) / Fold change /veh ORM1 (11744905_x_at) / RFU CCDC152 (11743942_at) / Fold change /veh CCDC152 (11743942_at) / RFU ECM1 (11717891_a_at) / Fold change /veh ECM1 (11717891_a_at) / RFU IL23R (11748794_a_at) / Fold change /veh IL23R (11748794_a_at) / RFU TNFAIP8L3 (11732012_x_at) / Fold change /veh TNFAIP8L3 (11732012_x_at) / RFU MBOAT4 (11741988_at) / Fold change /veh MBOAT4 (11741988_at) / RFU 11764193_at / Fold change /veh 11764193_at / RFU TMEM53 (11763286_at) / Fold change /veh TMEM53 (11763286_at) / RFU MAGEB2 (11727129_at) / Fold change /veh MAGEB2 (11727129_at) / RFU TMEM200A (11744735_a_at) / Fold change /veh TMEM200A (11744735_a_at) / RFU CCDC152 (11751479_a_at) / Fold change /veh CCDC152 (11751479_a_at) / RFU FAM211A (11726209_a_at) / Fold change /veh FAM211A (11726209_a_at) / RFU RGS16 (11746705_a_at) / Fold change /veh RGS16 (11746705_a_at) / RFU VCAN (11755009_s_at) / Fold change /veh VCAN (11755009_s_at) / RFU RHOB (11743442_s_at) / Fold change /veh RHOB (11743442_s_at) / RFU RGS16 (11720943_a_at) / Fold change /veh RGS16 (11720943_a_at) / RFU RGS16 (11720944_at) / Fold change /veh RGS16 (11720944_at) / RFU, VPS4B / Fold change vs veh, VPS4B / RFU, CREB1 / Fold change vs veh, CREB1 / RFU, DNAJC13 / Fold change vs veh, DNAJC13 / RFU, GNAQ / Fold change vs veh, GNAQ / RFU, CDK5R1 / Fold change vs veh, CDK5R1 / RFU, ZRANB3 / Fold change vs veh, ZRANB3 / RFU, CUL4A / Fold change vs veh, CUL4A / RFU, CCNY / Fold change vs veh, CCNY / RFU, UFL1 / Fold change vs veh, UFL1 / RFU, COG3 / Fold change vs veh, COG3 / RFU, DIAPH2 / Fold change vs veh, DIAPH2 / RFU, SKA2 / Fold change vs veh, SKA2 / RFU, AFF3 / Fold change vs veh, AFF3 / RFU, LMF1 / Fold change vs veh, LMF1 / RFU, IPO11 / Fold change vs veh, IPO11 / RFU, DFFB / Fold change vs veh, DFFB / RFU, FOXP1 / Fold change vs veh, FOXP1 / RFU, CARD8 / Fold change vs veh, CARD8 / RFU, STRN3 / Fold change vs veh, STRN3 / RFU, ADK / Fold change vs veh, ADK / RFU, RASSF2 / Fold change vs veh, RASSF2 / RFU, WIPF1 / Fold change vs veh, WIPF1 / RFU, LARP1B / Fold change vs veh, LARP1B / RFU, RASA1 / Fold change vs veh, RASA1 / RFU, RB1 / Fold change vs veh, RB1 / RFU, PPFIA1 / Fold change vs veh, PPFIA1 / RFU, MAT2A / Fold change vs veh, MAT2A / RFU, CCT5 / Fold change vs veh, CCT5 / RFU, WDR92 / Fold change vs veh, WDR92 / RFU, CUX1 / Fold change vs veh, CUX1 / RFU, TTC7A / Fold change vs veh, TTC7A / RFU, TMEM135 / Fold change vs veh, TMEM135 / RFU, DEPTOR / Fold change vs veh, DEPTOR / RFU, CPM / Fold change vs veh, CPM / RFU, DNAJB6 / Fold change vs veh, DNAJB6 / RFU, CACNA2D3 / Fold change vs veh, CACNA2D3 / RFU, DTX4 / Fold change vs veh, DTX4 / RFU, TFCP2 / Fold change vs veh, TFCP2 / RFU, GMCL1 /// GMCL1P1 / Fold change vs veh, GMCL1 /// GMCL1P1 / RFU, AEBP2 / Fold change vs veh, AEBP2 / RFU, SNHG1 /// SNORD22 /// SNORD25 /// SNORD26 /// SNORD27 /// SNORD28 /// SNORD29 /// SNORD31 / Fold change vs veh, SNHG1 /// SNORD22 /// SNORD25 /// SNORD26 /// SNORD27 /// SNORD28 /// SNORD29 /// SNORD31 / Fold change (Aza/veh), C12orf56 (ProbeSet 11735607_a_at) / Fold change (ACY-1035/veh), C12orf56 (ProbeSet 11735607_a_at) / Fold change (Aza/veh), FGFR1OP (ProbeSet 11751329_s_at) / Fold change (ACY-1035/veh), FGFR1OP (ProbeSet 11751329_s_at) / Fold change (Aza/veh), VPS36 (ProbeSet 11739960_a_at) / Fold change (ACY-1035/veh), VPS36 (ProbeSet 11739960_a_at) / RFU SYPL1 (11715823_x_at) / Fold change /veh SYPL1 (11715823_x_at) / RFU IGFBP7 (11715501_s_at) / Fold change /veh IGFBP7 (11715501_s_at) / RFU REEP3 (11722064_at) / Fold change /veh REEP3 (11722064_at) / RFU IGLL1 (11728026_x_at) / Fold change /veh IGLL1 (11728026_x_at): dose or concentration left out as unconfirmed
Settings: ProbeSet 11733831_s_at; LIST D

## Nc1ccc(-c2cccs2)cc1NC(=O)c1ccc2c(c1)cc(C1CC1)n2CCN1CCOCC1 [ACY-1035]
  RFU, GMCL1 /// GMCL1P1: 34.22 RFU
